Values after ≈ are worked out from the molar mass of the structure shown.

Assay [1] is described as follows: Inhibition of the complement alternative pathway by Mercaptan-treated human erythrocytes lyse in autologous serum via the alternative pathway activated by cobra venom factor in the presence of appropriate serial twofold dilutions of the test compound.
For assay [2], the species on record is Homo sapiens. In words: Ability to destroy fluid-phase human complement 1 in the presence of complement 4 with appropriate serial twofold dilutions of the test compound using C1 assay.
Assay [3] relates to Cavia porcellus. The experiment in a line: Evaluated in vivo after intraperitoneal administration by guinea pig assay. Format: functional.
The species entered for assay [4] is Cavia porcellus. In words: Evaluated in vitro for complement activity using guinea pig serum was determined by cap 50 assay. The conditions noted are these: for EC50: read-out: ED50 (the source's name). Format: functional.
The species entered for assay [5] is Homo sapiens. The experiment in a line: The ability to inhibit late component of human complement (C3-C9) using C-late assay.

For `Cc1ccc(C(=O)Nc2ccc(S(=O)(=O)O)c3cc(S(=O)(=O)O)cc(S(=O)(=O)O)c23)cc1NC(=O)c1cccc(NC(=O)Nc2cccc(C(=O)Nc3cc(C(=O)Nc4ccc(S(=O)(=O)O)c5cc(S(=O)(=O)O)cc(S(=O)(=O)O)c45)ccc3C)c2)c1` [SURAMIN], the ED50 is 167 µg/mL in assay [1], 21 µg/mL in assay [2] and 50 µg/mL (≈ 38.5 µM) in assay [5]. In assay [3], this compound showed an Inhibition of 44%. For the same compound, in assay [4], the EC50 came out at 603 µg/mL (≈ 465 µM).
With `O=S(=O)([O-])c1cc(NS(=O)(=O)c2ccc3c(S(=O)(=O)Nc4cc(S(=O)(=O)[O-])cc(S(=O)(=O)[O-])c4)cc(S(=O)(=O)Nc4cc(S(=O)(=O)[O-])cc(S(=O)(=O)[O-])c4)cc3c2)cc(S(=O)(=O)[O-])c1.[Na+].[Na+].[Na+].[Na+].[Na+].[Na+]`, the ED50 in assay [1] came to 21 µg/mL; in assay [2], 0.7 µg/mL; in assay [5], 12 µg/mL. The Inhibition in assay [3] is given as 86%. Also, the EC50 in assay [4] turned out to be 21 µg/mL.
For `Nc1ccc2cc(S(=O)(=O)[O-])cc(O)c2c1/N=N/c1ccc(NC(=O)Nc2ccc(/N=N/c3c(N)ccc4cc(S(=O)(=O)[O-])cc(O)c34)c(S(=O)(=O)[O-])c2)cc1S(=O)(=O)[O-].[Na+].[Na+].[Na+].[Na+]`, the values for the ED50 in assay [1], in assay [2] and in assay [5] were 167 µg/mL, 21 µg/mL and 6 µg/mL, respectively. The compound also came in with an Inhibition in assay [3] of over 95%. Also, the Activity in assay [4] turned out to be 113 µg/mL.
